Results from patent publication US20260014146A1, “CDK2 INHIBITORS AND METHODS OF USING THE SAME” (Cedilla Therapeutics, Inc., priority 2022, published 2026).

Experiments:
CDK2/Cyclin E1 = CDK2/Cyclin E1 (Homo sapiens (Human), UniProt P24941); experiment: ADP-Glo Luminescent Kinase Assay, ADPGLO (CDK2/E1-37C); format: biochemical; conditions: 0.18 nM CDK2/Cyclin E1, 100 μM ATP, 1.5 μM Histone H1, 37° C.; read-out: Pharmaron ADPGLO (CDK2/E1-37C): IC50
Description: Inhibition of CDK2/Cyclin E1 activity by the presence of small molecules was evaluated using ADP-Glo Luminescent Kinase Assay (Promega). Activated CDK2/Cyclin E1 was incubated with its substrate Histone H1 (SignalChem H10-54N) in the kinase reaction buffer (100 μM ATP, 50 mM HEPES pH 7.5, 10 mM MgCl2, 1 mM EDTA, 2 mM DTT, 0.01% Brij35, 0.5 mg/mL BSA). Luminescence was recorded with an Envision plate reader (PerkinElmer).
Dose titrations of inhibitors in 100% DMSO were combined with 0.36 nM CDK2/Cyclin E1 in reaction buffer. The mixtures were incubated for 60 minutes at 37° C. before the addition of ATP and Histone H1 substrate to initiate the kinase reaction. The final conditions were 0.18 nM CDK2/Cyclin E1, 100 μM ATP, and 1.5 μM Histone H1. The reactions were incubated at 37° C. for 90 minutes before being stopped with the addition of ADP-Glo reagent. This mixture was incubated at room temperature for 60 minutes before Kinase Detection Solution is added to generate luminescence. The stopped reactions were analyzed on an Envision plate reader. The conversion ratios were normalized to yield % activity, plotted against compound concentration, and fit to a four-parameter equation to determine the IC50 for each compound.

[1] = system: Kuramochi cells labeled with mApple-H2B; experiment: IncuCyte cell proliferation assay; format: cell-based; conditions: Kuramochi RB-WT, cell count 0 to 72 hours; method calls it GI50
Outline: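 mApple-H2B-labelled Kuramochi cells were treated with compound (10-point, half-log dilutions, 20 μM top) and fluorescent nuclei counted by imaging at 0 and 72 h. Fold change in count was normalized to DMSO wells and fitted to dose-response curves to give GI50.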

Structure (SMILES)	IC50 (CDK2/Cyclin E1)	IC50 [1]
C[C@@H](OCC12CCC(CC1)OC2)[C@H](NC(=O)[C@@H]1CN(c2cc(F)cc3ncoc23)CC12CN(C(=O)C1(C(F)(F)F)CC1)C2)C(=O)N1CCC(c2nccs2)CC1 [Compound I-52, (S)-N-((2S,3R)-3-((2-oxabicyclo[2.2.2]octan-4-yl)methoxy)-1-oxo-1-(4-(thiazol-2-yl)piperidin-1-yl)butan-2-yl)-6-(5-fluorobenzo[d]oxazol-7-yl)-2-(1-(trifluoromethyl)cyclopropane-1-carbonyl)-2,6-diazaspiro[3.4]octane-8-carboxamide]	5 to 10 µM	5 to 20 µM
C[C@@H](OCC12CCC(CC1)OC2)[C@H](NC(=O)[C@@H]1CN(c2cccc3nc(O)cnc23)CC12CN(C(=O)C1(C(F)(F)F)CC1)C2)C(=O)N1CCC(c2nccs2)CC1 [Compound I-45, (S)-N-((2S,3R)-3-((2-oxabicyclo[2.2.2]octan-4-yl)methoxy)-1-oxo-1-(4-(thiazol-2-yl)piperidin-1-yl)butan-2-yl)-6-(2-hydroxyquinoxalin-5-yl)-2-(1-(trifluoromethyl)cyclopropane-1-carbonyl)-2,6-diazaspiro[3.4]octane-8-carboxamide]	> 10 µM	> 20 µM
C[C@@H](OCC12CCC(CC1)OC2)[C@@H](COc1ccccc1C(=O)O)NC(=O)[C@@H]1CN(c2cc(F)cc3ncsc23)CC12CN(C(=O)C1(C(F)(F)F)CC1)C2 [Compound I-49, 2-((2R,3R)-3-((2-oxabicyclo[2.2.2]octan-4-yl)methoxy)-2-((S)-6-(5-fluorobenzo[d]thiazol-7-yl)-2-(1-(trifluoromethyl)cyclopropane-1-carbonyl)-2,6-diazaspiro[3.4]octane-8-carboxamido)butoxy)benzoic acid]	> 10 µM	> 20 µM
C[C@@H](OCC12CCC(CC1)OC2)[C@@H](COC1CCC(c2ccc(C(=O)O)cc2)CC1)NC(=O)[C@@H]1CN(c2cc(F)cc3ncsc23)CC12CN(C(=O)C1(C(F)(F)F)CC1)C2 (stereo partly drawn) [Compound I-47, 4-(4-((2R,3R)-3-((2-oxabicyclo[2.2.2]octan-4-yl)methoxy)-2-((S)-6-(5-fluorobenzo[d]thiazol-7-yl)-2-(1-(trifluoromethyl)cyclopropane-1-carbonyl)-2,6-diazaspiro[3.4]octane-8-carboxamido)butoxy)cyclohexyl)benzoic acid]	> 10 µM	5 to 20 µM

Further lines, with some results ahead:

IC50 (CDK2/Cyclin E1)	Structure (SMILES)	IC50 [1]
> 10 µM	C[C@@H](OCC12CCC(CC1)OC2)[C@H](NC(=O)[C@@H]1CN(c2cc(F)cc3ncsc23)CC12CN(C(=O)C1(C(F)(F)F)CC1)C2)C(=O)N1CCC2(CC1)COC2 [Compound I-46, (S)-N-((2S,3R)-3-(2-oxabicyclo[2.2.2]octan-4-ylmethoxy)-1-oxo-1-(2-oxa-7-azaspiro[3.5]nonan-7-yl)butan-2-yl)-6-(5-fluorobenzo[d]thiazol-7-yl)-2-(1-(trifluoromethyl)cyclopropanecarbonyl)-2,6-diazaspiro[3.4]octane-8-carboxamide]	> 20 µM
0.5 to 5 µM	C[C@@H](OCC12CCC(CC1)OC2)[C@H](NC(=O)[C@@H]1CN(c2cc(F)cc3ncsc23)CC12CN(C(=O)C1(C(F)(F)F)CC1)C2)C(=O)N1CCC(c2nccs2)CC1 [Compound I-48, (S)-N-((2S,3R)-3-((2-oxabicyclo[2.2.2]octan-4-yl)methoxy)-1-oxo-1-(4-(thiazol-2-yl)piperidin-1-yl)butan-2-yl)-6-(5-fluorobenzo[d]thiazol-7-yl)-2-(1-(trifluoromethyl)cyclopropane-1-carbonyl)-2,6-diazaspiro[3.4]octane-8-carboxamide]	0.5 to 5 µM
